Experimental data published in US5100909A, “Acetylenic imidazoles having central nervous system activity” (The Upjohn Company, priority 1991, dated 1992).
Where “and” joins values, the source holds several entries; their conditions need not be identical. Equal values may be shown once. Read-outs that look alike come from different tables or passages of the source.

Columns and labels:
[1] = biological target: CNS cholinergic receptor; assay: Cholinergic receptor binding assay, tritiated oxotremorine M ligand; conditions: read-out: CNS Cholinergic Receptor Binding Assays Ki (nM) Oxotremorine
[2] = tested on: oxotremorine-induced body tremor in mice; assay: Oxotremorine antagonist assay (body tremor) in mice; assay type: in vivo; conditions: Mus musculus, ip, read-out: Oxot. Antagonist Tremor (ED50)
Procedure: Oxotremorine antagonist assays were performed on groups of six mice weighing 18-22 g. Each was dosed intraperitoneally with the test compound prepared in 0.25% methylcellulose and were placed in individual cages. Twenty minutes later the mice were injected subcutaneously with 0.5 mg/kg of oxotremorine dissolved in saline. Ten minutes later the mice were scored for body tremor. Doses of the compound under study began at 100 mg/kg and were decreased at a 0.5 log interval until no responders were obtained.

[3] = biological target: CNS cholinergic receptor; assay type: binding; conditions: for Ki: tritiated quinuclidine benzylate, read-out: CNS Cholinergic Receptor Binding Assays Ki (nM) QNB; for Ki ratio (Ki QNB/Ki oxotremorine M): QNB vs oxotremorine M binding; for cholinergic agonist / antagonist / partial agonist classification by Ki ratio: from Ki QNB/Ki oxotremorine M ratio
[4] = tested on: HCl-induced writhing in CF1 mice; assay: Analgesic activity, HCl writhing protection in mice; assay type: in vivo; conditions: Mus musculus, sc, 0.25 h, read-out: CNS Id (ED50 mg/kg) HCl Writh. Protect
Procedure: For determination of analgesic activity, the test compound was injected subcutaneously into a group of four CF1 mice. Thirty minutes later the mice were injected i.p. with 0.15% HCl, 10 ml./kg. Mice are then placed in plastic boxes and observed for fifteen minutes to record the number of animals failing to writhe.

[5] = tested on: scopolamine-induced amnesia in mice; assay: Antagonism of amnesia produced by scopolamine, one trial step through passive avoidance; assay type: in vivo, mouse; conditions: i.p. test compound, scopolamine hydrobromide 1 mg/kg s.c.; retention 24 hrs
From the text: For antagonism of amnesia produced by scopolamine a one trial, step through passive avoidance paradigm was used. In this procedure a mouse was placed on a square platform adjoining darkened chamber. The mouse could enter the chamber through a hole above the platform. Following placement on the platform, the mouse was enclosed by a clear plexiglas cover which mildly restricted movement, limiting the animal to turning around and partial rearing. A sliding door was opened after this, exposing the entrance to the chamber. A timer was started at the same time the door was opened, in order to record latency to enter the chamber. Upon complete entry into the darkened box, the door was closed behind the mouse and a 1 mA, 2 sec, direct current shock applied to the feet of the mouse through the grid floor. The mouse was immediately removed from the chamber and returned to a 24 hr group holding cage.
Drug testing involved intraperitoneal injection of the test compound followed 15 min later by subcutaneous injection of 1 mg/kg scopolamine hydrobromide. […] The latency for each mouse to enter the chamber was recorded, with a cut-off at 180 sec.
Median group latencies to enter the chamber during both training and testing were recorded and a Wilcoxon rank sum test applied to data comparing the parallel "scopolamine only" group with all drug combination groups on testing. […]

[6] = i.p. test compound, 20 min before oxotremorine 0.5 mg/kg s.c., mice
[7] = s.c. test compound, 30 min before 0.15% HCl i.p., CF1 mice

In the case of `CC(=O)NCC#CCn1ccnc1` [Compound 22, N-[4-(1H-Imidazol-1-yl)-2-butynyl]acetamide], the Ki [1] is reported as 187 nM and the ED50 [2, 6] is reported as greater than 100 mg/kg.
`CC(=O)N(C)CC#CCn1cncc1C` [Compound 20, N-[4-(5-Methyl-1H-imidazol-1-yl)-2-butynyl]-N-methylacetamide] showed a Ki [1] of 3.6 nM, a Ki [3] of 172 nM and an ED50 [2, 6] greater than 100 mg/kg.
For `Cc1cn(CC#CCN2CCCC2=O)c(C)n1` [Compound 4, 1-[4-(2,4-Dimethyl-1H-imidazol-1-yl)-2-butynyl]-2-pyrrolidinone], the Ki [1] was 68 nM, the Ki [3] was 160 nM and the ED50 [2, 6] was 54 mg/kg. The ED50 [4] was greater than 50 mg/kg.
`Cc1cncn1CC#CCN1CCCC1=O` [Compound 3, 1-[4-(5-Methyl-1H-imidazol-1-yl)-2-butynyl]-2-pyrrolidinone] was tested, and the Ki [1] was 3.2 nM and 3.3 nM, the “Ki ratio (Ki QNB/Ki oxotremorine M)” value [3] was “intermediate Ki ratios” and the “cholinergic agonist / antagonist / partial agonist classification by Ki ratio” value [3] was “cholinergic partial agonists”. The Ki [3] was 64 nM and 79.8 nM and the ED50 [4, 7] was 2.6 mg/kg.
`Cc1cncn1CC#CCN1C(=O)CCC1=O` [Compound 11, 1-[4-(5-Methyl-1H-imidazol-1-yl)-2-butynyl]-2,5-pyrrolidinedione] showed a Ki [1] of 10.3 nM, a Ki [3] of 100 nM and an ED50 [2] of 37 mg/kg.
`O=C1CCCN1CC#CCn1ccnc1` [Compound 1, 1-[4-(1H-Imidazol-1-yl)-2-butynyl]-2-pyrrolidinone] was tested, and the Ki [1] was 1.3 nM, the “Ki ratio (Ki QNB/Ki oxotremorine M)” value [3] was greater than 100 and the “cholinergic agonist / antagonist / partial agonist classification by Ki ratio” value [3] was “cholinergic agonists”. The Ki [3] was 600 nM, the ED50 [2] was greater than 100 mg/kg and the ED50 [4, 7] was 0.4 mg/kg.
In the case of `CC(=O)N(C)C(C)C#CCN1CCCC1` (stereo not drawn) [BM-5, reference compound], the ED50 [2, 6] is reported as 3.7 mg/kg and the ED50 [4, 7] is reported as 4.4 mg/kg.
With `Cc1cn(CC#CCN2CCCC2=O)cn1` [Compound 9, 1-[4-(4-Methyl-1H-imidazol-1-yl)-2-butynyl]-2-pyrrolidinone] the Ki [1] was 10.3 nM, the Ki [3] was 377 nM and the ED50 [2, 6] was greater than 100 mg/kg.
With `CC(C#CCn1ccnc1)N1CCCC1=O` (stereo not drawn) [Compound 6, 1-[4-(1H-Imidazol-1-yl)-1-methyl-2-butynyl]-2-pyrrolidinone] the Ki [1] was 33.5 nM, the Ki [3] was 566 nM and the ED50 [2, 6] was 45 mg/kg. For the same compound, the ED50 [4, 7] was greater than 50 mg/kg.
`Cc1nccn1CC#CCN1CCCC1=O` [Compound 2, 1-[4-(2-Methyl-1H-imidazol-1-yl)-2-butynyl]-2-pyrrolidinone] was tested, and the Ki [1] was 0.3 nM, the “Ki ratio (Ki QNB/Ki oxotremorine M)” value [3] was less than 10 and the “cholinergic agonist / antagonist / partial agonist classification by Ki ratio” value [3] was “cholinergic antagonists”. It also gave a Ki [3] of 3.8 nM, an ED50 [2, 6] greater than 100 mg/kg and an ED50 [4, 7] of 0.1 mg/kg.
Compound `CC(=O)N(C)C(C)C#CCn1cncc1C` (stereo not drawn) [Compound 21, N-[4(5-Methyl-1H-imidazol-1-yl)-1-methyl-2-butynyl]-N-methylacetamide] has a Ki [1] of 10 nM, a Ki [3] of 184 nM and an ED50 [2, 6] of 80 mg/kg.
Compound `CC(=O)N(C)C(C)C#CCn1c(C)cnc1C` (stereo not drawn) [Compound 18, N-[4-(2,5-Dimethyl-1H-imidazol-1-yl)-1-methyl-2butynyl]-N-methylacetamide] has a Ki [1] of 6.3 nM, a Ki [3] of 8.5 nM and an ED50 [2, 6] of 14.2 mg/kg.
`O=C1CCC(=O)N1CC#CCn1ccnc1` [Compound 10, 1-[4-(1H-Imidazol-1-yl)-2-butynyl]-2,5-pyrrolidinedione] gave a Ki [1] of 23.5 nM, a Ki [3] of 634 nM and an ED50 [2] of 25 mg/kg.
`Br.Cc1cncn1CC#CC(C)N1CCCC1=O` (stereo not drawn) [Compound 12, 1-[4-(5-Methyl-1H-imidazol-1-yl)-1-methyl-2-butynyl]-2-pyrrolidinone hydrobromide] showed a Ki [1] of 5.2 nM, a Ki [3] of 16.8 nM and an ED50 [2, 6] of 25 mg/kg.
`CC(=O)NCC#CCn1cncc1C` [Compound 23, N-[4-(5-Methyl-1H-imidazol-1-yl)-2-butynyl]acetamide] was tested, and the Ki [1] was 213 nM and the ED50 [2, 6] was greater than 100 mg/kg.
In the case of `Cc1cncn1CC#CCN(C)C(=O)N(C)C` [Compound 25, [4-(5-Methyl-1H-imidazol-1-yl)-2-butynyl]trimethyl urea], the Ki [1] is reported as 82.1 nM and the ED50 [2, 6] is reported as greater than 100 mg/kg.
Work on `CC(=O)N(C)C(C)C#CCn1cnc(C)c1C` (stereo not drawn) [Compound 16, N-[4-(4,5-Dimethyl-1H-imidazol-1-yl)-1-methyl-2-butynyl]-N-methylacetamide] yielded a Ki [1] of 42 nM, a Ki [3] of 79 nM and an ED50 [2, 6] of 25.4 mg/kg. The ED50 [4, 7] was greater than 50 mg/kg.
In the case of `C(#CCn1ccnc1)CN1CCCC1` [Compound 28, 1-[4-(Pyrrolidinyl)-2-butynyl]-1H-imidazole], the ED50 [2] is reported as greater than 100 mg/kg and the ED50 [4] is reported as 3.1 mg/kg.
Compound `C(#CCN1CCCC1)CN1CCCC1` [Tremorine, reference compound] has a Ki [1] of 370 nM, a Ki [3] of 4600 nM and an ED50 [2] greater than 100 mg/kg.
Compound `CC(=O)N(C)C(C)C#CCn1ccnc1` (stereo not drawn) [Compound 14, N-[4-(1H-Imidazol-1-yl)-1-methyl-2-butynyl]-N-methylacetamide] has a Ki [1] of 12 nM, a Ki [3] of 1500 nM and an ED50 [2, 6] greater than 100 mg/kg. The ED50 [4, 7] was 0.9 mg/kg.
Work on `CCN(CC)CC#CCn1ccnc1` [Compound 31, N,N-Diethyl-4-(1H-Imidazol-1-yl)-2-butyn-1-amine] yielded a Ki [1] of 10000 nM, an ED50 [2] greater than 100 mg/kg and an ED50 [4] greater than 50 mg/kg.
With `Cc1nccn1CC#CCN1CCCC1` [Compound 30, 2-Methyl-1-[4-(pyrrolidinyl)-2-butynyl]-1H-imidazole] the ED50 [2] was greater than 100 mg/kg and the ED50 [4] was 5 mg/kg.
In the case of `CCc1nccn1CC#CCN1CCCC1=O` [Compound 7, 1-[4-(2-Ethyl-1H-imidazol-1yl)-2-butynyl]-2-pyrrolidinone], the Ki [1] is reported as 29.1 nM, the Ki [3] is reported as 56.9 nM and the ED50 [2, 6] is reported as 9.7 mg/kg. It also gave an ED50 [4, 7] greater than 50 mg/kg.
Compound `COC(=O)N(C)CC#CCn1ccnc1` [Compound 26, Methyl [4-(1H-imidazol-1-yl)-2-butynyl]methylcarbamate] has a Ki [1] of 120 nM and an ED50 [2, 6] greater than 100 mg/kg.
Work on `COC(=O)N(C)CC#CCn1cncc1C` [Compound 27, Methyl [4-(5-methyl-1H-imidazol-1-yl)-2-butynyl]methyl carbamate] yielded a Ki [1] of 200 nM and an ED50 [2, 6] greater than 100 mg/kg.
`CC(=O)N(C)C(C)C#CCn1ccnc1C` (stereo not drawn) [Compound 15, N-[4-(2-Methyl-1H-imidazol-1-yl)-1-methyl-2-butynyl]-N-methylacetamide] showed a Ki [1] of 1.6 nM, a Ki [3] of 19 nM and an ED50 [2, 6] of 11.8 mg/kg. For the same compound, the ED50 [4, 7] was greater than 50 mg/kg and the “antagonism of amnesia produced by scopolamine” value [5] was “most active”.
Work on `CN(C)CC#CCn1ccnc1` [Compound 29, 4-(1H-Imidazol-1-yl)-N,N-dimethyl-2-butyn-1-amine] yielded a Ki [1] of 10000 nM, an ED50 [2] greater than 100 mg/kg and an ED50 [4] greater than 50 mg/kg.
In the case of `Cc1cncn1CC#CCN1C(=O)CCC1C` (stereo not drawn) [Compound 13], the Ki [1] is reported as 1.7 nM, the Ki [3] is reported as 11.6 nM and the ED50 [2, 6] is reported as 14 mg/kg.
Compound `CC1CCC(=O)N1CC#CCn1ccnc1` (stereo not drawn) [Compound 5, 1-[4-(1H-Imidazol-1-yl)-2-butynyl]-5-methyl-2-pyrrolidinone] has a Ki [1] of 23 nM, a Ki [3] of 171 nM and an ED50 [2, 6] of 20.9 mg/kg. The ED50 [4, 7] was greater than 50 mg/kg.
Compound `CC(=O)N(C)C(C)C#CCn1cc(C)nc1C` (stereo not drawn) [Compound 17, N-[4-(2,4-Dimethyl-1H-imidazol-1-yl)-1-methyl-2-butynyl]-N-methylacetamide] has a Ki [1] of 130 nM, a Ki [3] of 180 nM and an ED50 [2, 6] of 80 mg/kg. The ED50 [4, 7] was greater than 50 mg/kg.
`CN(C)C(=O)N(C)CC#CCn1ccnc1` [Compound 24, [4-(1H-Imidazol-1-yl)-2-butynyl]trimethyl urea] was tested, and the Ki [1] was 34 nM, the ED50 [2, 6] was greater than 100 mg/kg and the “antagonism of amnesia produced by scopolamine” value [5] was “most active”.
`O=C1CCCN1CC#CCn1ccnc1Cl` [Compound 8, 1-[4-(2-Chloro-1H-imidazol-1-yl)-2-butynyl]-2-pyrrolidinone] gave a Ki [1] of 577 nM and an ED50 [2, 6] greater than 100 mg/kg.
With `CC(=O)N(C)CC#CCn1ccnc1` [Compound 19, N-[4-(1H-Imidazol-1-yl)-2-butynyl]-N-methylacetamide] the Ki [1] was 1.9 nM and the ED50 [2, 6] was greater than 100 mg/kg.
With `Cc1cncn1CC#CCN1CCCC1` [Compound 32, 5-Methyl-1[(4-pyrrolidinyl)-2-butynyl]-1H-imidazole] the Ki [1] was 436 nM and the ED50 [2] was greater than 100 mg/kg.
